Laboratory results as given in article PMC10796436, “Peptidyl nitroalkene inhibitors of main protease rationalized by computational and crystallographic investigations as antivirals against SARS-CoV-2” (Communications Chemistry, 2024).
Values joined by “and” are separate entries in the source; they are usually repeats but may differ in a detail not shown here. Equal entries are not always repeated. Where two headings read alike, the source gives them in different places.

Key:
SARS-CoV-2 M^pro [1] = biological target: T1, SARS-CoV-2 M^pro (Severe acute respiratory syndrome coronavirus 2, UniProt P0DTD1); experiment: biochemical; settings: M^pro from pMal-M^pro vector
M^pro [2] = biological target: T2, M^pro (Severe acute respiratory syndrome coronavirus 2, UniProt P0DTD1); experiment: biochemical; assay type: binding
SARS-CoV-2 M^pro [3] = biological target: T1, SARS-CoV-2 M^pro; experiment: Mpro FRET inhibition, continuous fluorometric assay (Fluorolog-3), enzyme from pET21-M^pro vector; assay type: biochemical; settings: read-out: Ki (μM)^b
rhodesain (RhD) = biological target: T3, rhodesain (RhD) (Trypanosoma brucei rhodesiense, UniProt Q95PM0); experiment: Rhodesain inhibition, fluorometric assay; assay type: biochemical; settings: read-out: Ki RhD
T3 construct: made in house

cathepsin L (CatL) = biological target: T4, cathepsin L (CatL) (Homo sapiens, UniProt P07711); experiment: Cathepsin L inhibition, fluorometric assay; assay type: biochemical; settings: read-out: Ki CatL
T4 construct: purchased Calbiochem (Merck Millipore)

SARS-CoV-2 = experiment: microbe, parasite or virus in culture; assay type: cell-based; settings: for EC50: Huh-7-ACE2, 24h p.t., MOI=0.1; for virus titer Mean (%): mean of Exp.1-3; for virus titer (pfu/ml) / virus titer (%) of conc 0: single experiments
M^pro [4] = biological target: T2, M^pro; experiment: Binding to M^pro by ultracentrifugation (sedimentation method)
[5] = biological target: Zika Virus NS2B/NS3 (bZiPro) (Zika virus, UniProt A0A024B7W1); experiment: Zika virus protease inhibition, fluorometric assay; assay type: biochemical; settings: 20 μM
cathepsin B (CatB) = biological target: T5, cathepsin B (CatB) (Homo sapiens, UniProt P07858); experiment: Cathepsin B inhibition, fluorometric assay; assay type: biochemical; settings: read-out: Ki CatB
T5 construct: purchased Calbiochem (Merck Millipore)

in vitro = settings: human
[6] = biological target: human matriptase (MT-SP1) (Homo sapiens, UniProt Q9Y5Y6); experiment: Matriptase inhibition, fluorometric assay; assay type: biochemical; settings: 20 μM
cruzain (CRZ) = cruzain (CRZ) (Trypanosoma cruzi, UniProt P25779); experiment: Cruzain inhibition, fluorometric assay; assay type: biochemical; settings: read-out: Ki CRZ
[7] = calibration compound; cited from earlier work
M^pro [8] = biological target: T2, M^pro; assay type: biochemical; settings: for Fluorescence reading (progress curve): triplicate wells
Experimental: Buffer: 20 mM Tris, 0.1 mM EDTA, 1 mM DTT, 200 mM NaCl pH = 7.5. For the dilution assay Nirmatrelvir[21] was used as a reversible control and LM188[54] as an irreversible control (Fig. 10).
The incubation was done at RT for 30 min in assay buffer. DMSO was used as a control. After incubation the Enzyme/Inhibitor (or DMSO) mixtures were diluted 100-fold in assay buffer.
The preincubation was done in assay buffer (20 mM Tris, 0.1 mM EDTA, 1 mM DTT, 200 mM NaCl, pH = 7.5), at RT for 30 min. After incubation the mixtures were diluted […]
proteolytic activity of the enzyme was measured as described for the enzymatic assays using the […]
activity was measured over 1 h.
Inhibition assay58. Trypsin: Enzyme: bovine trypsin purchased from Sigma-Aldrich (St. Louis, […]
Substrate: Cbz-FR-AMC purchased from Bachem (Bubendorf, Switzerland), [Substrate]: 40 µM […]
The activity against bovine trypsin was tested at 20 µM inhibitor concentration. […]

Chain of human matriptase (MT-SP1) (Q9Y5Y6 615-855 limits assumed, other chains not shown): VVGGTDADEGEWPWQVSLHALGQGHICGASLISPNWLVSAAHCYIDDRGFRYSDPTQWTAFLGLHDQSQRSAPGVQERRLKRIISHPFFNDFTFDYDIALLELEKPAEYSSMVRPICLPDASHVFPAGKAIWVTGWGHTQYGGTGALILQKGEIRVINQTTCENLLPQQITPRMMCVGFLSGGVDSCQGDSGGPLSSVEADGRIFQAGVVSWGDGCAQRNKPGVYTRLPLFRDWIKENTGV
T4 sequence (P07711 114-288 limits assumed): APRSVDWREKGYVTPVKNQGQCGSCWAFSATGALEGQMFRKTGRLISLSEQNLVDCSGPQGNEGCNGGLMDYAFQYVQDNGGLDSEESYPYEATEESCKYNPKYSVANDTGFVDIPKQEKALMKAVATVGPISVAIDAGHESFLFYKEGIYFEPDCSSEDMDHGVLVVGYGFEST
T4 sequence (P07711 292-333 limits assumed): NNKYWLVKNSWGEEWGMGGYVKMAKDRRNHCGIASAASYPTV
Chain of Zika Virus NS2B/NS3 (bZiPro) (A0A024B7W1 1425-1464): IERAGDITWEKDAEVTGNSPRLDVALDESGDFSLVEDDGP
Chain of Zika Virus NS2B/NS3 (bZiPro) (A0A024B7W1 1503-1680): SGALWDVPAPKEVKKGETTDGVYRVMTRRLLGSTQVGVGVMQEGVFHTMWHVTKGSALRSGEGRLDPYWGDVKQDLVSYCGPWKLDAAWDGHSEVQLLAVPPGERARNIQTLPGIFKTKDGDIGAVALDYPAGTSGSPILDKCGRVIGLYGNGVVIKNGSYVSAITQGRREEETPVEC
T3 sequence (Q95PM0 entry or part of it): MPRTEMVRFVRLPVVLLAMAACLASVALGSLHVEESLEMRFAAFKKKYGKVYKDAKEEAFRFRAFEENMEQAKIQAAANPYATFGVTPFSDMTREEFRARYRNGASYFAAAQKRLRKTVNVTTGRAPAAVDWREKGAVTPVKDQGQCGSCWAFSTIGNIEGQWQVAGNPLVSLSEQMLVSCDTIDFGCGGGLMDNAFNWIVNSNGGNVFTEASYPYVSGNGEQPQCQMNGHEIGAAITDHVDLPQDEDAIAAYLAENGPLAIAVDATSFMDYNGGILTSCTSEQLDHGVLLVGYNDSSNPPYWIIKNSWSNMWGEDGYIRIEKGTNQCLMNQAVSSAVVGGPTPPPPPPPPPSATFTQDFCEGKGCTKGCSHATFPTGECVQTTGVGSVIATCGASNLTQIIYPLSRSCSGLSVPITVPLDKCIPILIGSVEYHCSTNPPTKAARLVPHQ
Chain of cruzain (CRZ) (P25779 123-467): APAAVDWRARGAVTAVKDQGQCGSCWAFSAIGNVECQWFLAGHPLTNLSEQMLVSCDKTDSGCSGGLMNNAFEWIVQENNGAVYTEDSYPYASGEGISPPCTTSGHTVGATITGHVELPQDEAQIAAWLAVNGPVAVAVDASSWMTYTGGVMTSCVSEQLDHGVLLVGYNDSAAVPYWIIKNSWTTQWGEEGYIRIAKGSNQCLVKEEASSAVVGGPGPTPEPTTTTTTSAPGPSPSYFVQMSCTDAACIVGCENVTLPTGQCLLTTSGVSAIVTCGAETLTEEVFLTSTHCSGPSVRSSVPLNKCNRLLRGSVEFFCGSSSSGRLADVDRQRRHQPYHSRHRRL

## CC(C)CC(NC(=O)C=Cc1ccccc1)C(=O)NC(C=C[N+](=O)[O-])CCc1ccccc1 (centres unmarked) [FGA177]
SARS-CoV-2 M^pro [1]
  inhibition at 20 µM: 25%
M^pro [2]; 25 µM, read-out: DTm (°C)
  ΔTm at 25 µM: 0.1 °C
M^pro [2]; range of 25 to 100 μM
  change of Tm of M^pro: 0.1 ± 0.2 °C
SARS-CoV-2 M^pro [3]
  Ki: 8.59 ± 1.6 µM

## CC(C)CC(NC(=O)C=Cc1ccccc1)C(=O)NC(C=C[N+](=O)[O-])CC1CCNC1=O (centres unmarked) [FGA145]
Rhodesain (RhD)
  Ki: 0.00163 ± 0.00022 µM
Cathepsin L (CatL)
  Ki: 0.053 ± 0.0041 µM
SARS-CoV-2
  EC50: 11.7 µM
SARS-CoV-2; Severe acute respiratory syndrome coronavirus 2, 24 h
  EC50: 11.7 µM
SARS-CoV-2; conc 0.1
  virus titer Mean (%): 99%
  virus titer (pfu/ml): 1400000 pfu/ml and 1000000 pfu/ml and 1070000 pfu/ml
SARS-CoV-2; conc 0.5
  virus titer Mean (%): 119%
  virus titer (%) of conc 0: 160% and 90% and 107%
  virus titer (pfu/ml): 1600000 pfu/ml and 1800000 pfu/ml and 1070000 pfu/ml
SARS-CoV-2; conc 1
  virus titer Mean (%): 120%
  virus titer (pfu/ml): 1400000 pfu/ml and 1500000 pfu/ml
SARS-CoV-2; conc 5
  virus titer Mean (%): 108.333%
  virus titer (%) of conc 0: 120% and 75% and 130%
  virus titer (pfu/ml): 1200000 pfu/ml and 1500000 pfu/ml and 1300000 pfu/ml
SARS-CoV-2; conc 10
  virus titer Mean (%): 25.6667%
  virus titer (pfu/ml): 400000 pfu/ml and 200000 pfu/ml and 270000 pfu/ml
SARS-CoV-2; conc 50
  virus titer Mean (%): 0.07467%
  virus titer (%) of conc 0: 0.2% and 0.01% and 0.014%
SARS-CoV-2; conc 100
  virus titer Mean (%): 0.017%
  virus titer (%) of conc 0: 0.006% and 0.02% and 0.025%
M^pro [4]; ligand concentration 0.5
  Fraction bound, Absorption: 0.01689
M^pro [4]; ligand concentration 1
  Fraction bound, Absorption: 0.05068
M^pro [4]; ligand concentration 5
  Fraction bound, Absorption: 0.2419
M^pro [4]; ligand concentration 10
  Fraction bound, Absorption: 0.373
M^pro [4]; ligand concentration 25
  Fraction bound, Absorption: 0.7297
M^pro [4]; ligand concentration 50
  Fraction bound, Absorption: 0.9595
M^pro [4]; ligand concentration 100
  Fraction bound, Absorption: 1.009
M^pro [4]; ultracentrifugation, 25 °C
  Kd: 11.8 ± 1.05 µM
[5]
  bZiPro: n.i. (no inhibition (<10%) was observed at a concentration of 20 μM)
SARS-CoV-2 M^pro [1]
  Ki: 3.71 ± 0.38 µM
Cathepsin B (CatB)
  Ki: 0.206 ± 0.041 µM
In vitro
  CC50: > 100 µM
[6]
  MT-SP1: n.i. (no inhibition (<10%) was observed at a concentration of 20 μM)
M^pro [2]; 25 µM
  change of Tm of M^pro: −1.1 ± 0.2 °C
M^pro [2]; 25 µM, read-out: DTm (°C)
  ΔTm at 25 µM: -1.1 °C
M^pro [2]; 100 μM
  change of Tm of M^pro: −3.7 ± 0.1 °C
Cruzain (CRZ)
  Ki: 0.0126 ± 0.0015 µM
SARS-CoV-2 M^pro [3]
  Ki: 9.82 ± 1.5 µM

## CCCC(=O)c1ccccc1 [Butyrophenone]
[7]
  Chromatographic Hydrophobicity Index (publication): 88.49

## CCC(=O)c1ccccc1 [Propiophenone]
[7]
  Chromatographic Hydrophobicity Index (publication): 78.41

## c1ccc(-c2nnn[nH]2)cc1 [Phenyltetrazole]
[7]
  Chromatographic Hydrophobicity Index (publication): 20.18

## COc1cccc2[nH]c(C(=O)N[C@@H](CC(C)C)C(=O)N[C@H](/C=C/S(=O)(=O)c3ccccc3)C[C@@H]3CCNC3=O)cc12 [LM188, reference compound]
M^pro [8]; Time 180.071 s
  Fluorescence reading (progress curve): 253 and 247
M^pro [8]; Time 210.081 s
  Fluorescence reading (progress curve): 256 and 250
M^pro [8]; Time 240.095 s
  Fluorescence reading (progress curve): 254 and 247
M^pro [8]; Time 270.113 s
  Fluorescence reading (progress curve): 256 and 248
M^pro [8]; Time 300.118 s
  Fluorescence reading (progress curve): 253 and 248 and 250
M^pro [8]; Time 330.126 s
  Fluorescence reading (progress curve): 256 and 248 and 247
M^pro [8]; Time 360.134 s
  Fluorescence reading (progress curve): 249 and 246 and 248
M^pro [8]; Time 390.141 s
  Fluorescence reading (progress curve): 253 and 250 and 249
M^pro [8]; Time 420.149 s
  Fluorescence reading (progress curve): 251 and 247 and 248
M^pro [8]; Time 450.157 s
  Fluorescence reading (progress curve): 255 and 249 and 250
M^pro [8]; Time 480.18 s
  Fluorescence reading (progress curve): 255 and 244
M^pro [8]; Time 2881.2 s
  Fluorescence reading (progress curve): 249 and 222 and 233
M^pro [8]; Time 2911.21 s
  Fluorescence reading (progress curve): 247 and 222 and 232
M^pro [8]; Time 2941.22 s
  Fluorescence reading (progress curve): 252 and 222 and 230
M^pro [8]; Time 2971.24 s
  Fluorescence reading (progress curve): 250 and 221 and 231
M^pro [8]; Time 3001.25 s
  Fluorescence reading (progress curve): 248 and 221 and 233
M^pro [8]; Time 3031.26 s
  Fluorescence reading (progress curve): 247 and 219 and 231
M^pro [8]; Time 3061.27 s
  Fluorescence reading (progress curve): 249 and 220 and 232
M^pro [8]; Time 3091.28 s
  Fluorescence reading (progress curve): 249 and 219 and 230
M^pro [8]; Time 3121.29 s
  Fluorescence reading (progress curve): 250 and 222 and 232
M^pro [8]; Time 3151.3 s
  Fluorescence reading (progress curve): 246 and 219 and 232
M^pro [8]; Time 3181.31 s
  Fluorescence reading (progress curve): 246 and 220 and 232
M^pro [8]; Time 3211.32 s
  Fluorescence reading (progress curve): 246 and 221 and 231
M^pro [8]; Time 3241.33 s
  Fluorescence reading (progress curve): 243 and 219 and 230
M^pro [8]; Time 3271.34 s
  Fluorescence reading (progress curve): 248 and 221 and 229
M^pro [8]; Time 3301.35 s
  Fluorescence reading (progress curve): 245 and 216 and 230
M^pro [8]; Time 3331.36 s
  Fluorescence reading (progress curve): 246 and 218 and 230
M^pro [8]; Time 3361.37 s
  Fluorescence reading (progress curve): 243 and 219 and 232
M^pro [8]; Time 3391.39 s
  Fluorescence reading (progress curve): 244 and 216 and 230
M^pro [8]; Time 3421.39 s
  Fluorescence reading (progress curve): 241 and 217 and 230
M^pro [8]; Time 3451.41 s
  Fluorescence reading (progress curve): 245 and 215 and 227
M^pro [8]; Time 3481.42 s
  Fluorescence reading (progress curve): 249 and 217 and 230
M^pro [8]; Time 3511.43 s
  Fluorescence reading (progress curve): 242 and 218 and 229
M^pro [8]; Time 3541.44 s
  Fluorescence reading (progress curve): 244 and 216 and 229
M^pro [8]; Time 3571.45 s
  Fluorescence reading (progress curve): 243 and 214 and 228
M^pro [8]; preincubation 30 min
  recovery of M^pro activity after 100-fold dilution: no visible recovery of activity

## CC(C)C[C@H](NC(=O)[C@@H](NC(=O)[C@H](C)NC(=O)OC(C)(C)C)C(C)C)C(=O)N[C@H](/C=C/[N+](=O)[O-])CCc1ccccc1 [FGA159]
SARS-CoV-2 M^pro [1]
  Ki: 21.8 ± 1.5 µM
M^pro [2]; 5 µM, read-out: DTm (°C)
  ΔTm at 5 µM: 2.6 °C
M^pro [2]; 25 µM, read-out: DTm (°C)
  ΔTm at 25 µM: 2.5 °C
M^pro [2]; concentration range between 5 and 100 μM
  change of Tm of M^pro: 2.5 ± 0.2 °C
SARS-CoV-2 M^pro [3]
  Ki: 1.19 ± 0.18 µM

## Cn1c(=O)c2[nH]cnc2n(C)c1=O [Theophylline]
[7]
  Chromatographic Hydrophobicity Index (publication): 15.76

## CC(=O)c1ccccc1 [Acetophenone]
[7]
  Chromatographic Hydrophobicity Index (publication): 64.90

## CCCCC(=O)c1ccccc1 [Valerophenone]
[7]
  Chromatographic Hydrophobicity Index (publication): 97.67

## c1ccc2[nH]cnc2c1 [Benzimidazole]
[7]
  Chromatographic Hydrophobicity Index (publication): 30.71

## O=C(N[C@@H](Cc1ccccc1)C(=O)N[C@H](/C=C/[N+](=O)[O-])CCc1ccccc1)OCc1ccccc1 [FGA86]
SARS-CoV-2 M^pro [1]
  inhibition at 20 µM: 17%
M^pro [2]; 25 µM
  change of Tm of M^pro: 0.9 ± 0.4 °C
M^pro [2]; 25 µM, read-out: DTm (°C)
  ΔTm at 25 µM: 0.9 °C
M^pro [2]; 100 μM
  change of Tm of M^pro: −1.7 ± 0.4 °C
SARS-CoV-2 M^pro [3]
  Ki: 2.67 ± 0.29 µM
